According to patent publication US10160762B2, “6-alkyl dihydropyrazolopyrimidinone compounds as PDE2 inhibitors” (Merck Sharp & Dohme Corp., priority 2015, dated 2018):

Target: T1, human PDE2A1 (Homo sapiens, UniProt O00408)
T1 construct: GST; purchased BPS Bioscience (San Diego, Calif.) 60020; host or cells: insect cells
Experiment: IMAP FP PDE assay, human PDE2A1
Format: biochemical
Conditions: Lab B; read-out: Human PDE2 Ki (nM) Lab B
How it was run: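 GST-tagged human PDE2A1 from insect cells; substrate 50 nM FAM-cAMP containing 1000 nM cGMP in Tris pH 7.2/MgCl2/DTT buffer, enzyme giving 20% conversion. 60 min at room temperature, IMAP binding reagent, fluorescence polarization read. Apparent Ki from FP readings using apparent KM 10,000 nM; ten-point 3-fold titrations.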

T1 sequence (O00408 1-920 isoform O00408-2): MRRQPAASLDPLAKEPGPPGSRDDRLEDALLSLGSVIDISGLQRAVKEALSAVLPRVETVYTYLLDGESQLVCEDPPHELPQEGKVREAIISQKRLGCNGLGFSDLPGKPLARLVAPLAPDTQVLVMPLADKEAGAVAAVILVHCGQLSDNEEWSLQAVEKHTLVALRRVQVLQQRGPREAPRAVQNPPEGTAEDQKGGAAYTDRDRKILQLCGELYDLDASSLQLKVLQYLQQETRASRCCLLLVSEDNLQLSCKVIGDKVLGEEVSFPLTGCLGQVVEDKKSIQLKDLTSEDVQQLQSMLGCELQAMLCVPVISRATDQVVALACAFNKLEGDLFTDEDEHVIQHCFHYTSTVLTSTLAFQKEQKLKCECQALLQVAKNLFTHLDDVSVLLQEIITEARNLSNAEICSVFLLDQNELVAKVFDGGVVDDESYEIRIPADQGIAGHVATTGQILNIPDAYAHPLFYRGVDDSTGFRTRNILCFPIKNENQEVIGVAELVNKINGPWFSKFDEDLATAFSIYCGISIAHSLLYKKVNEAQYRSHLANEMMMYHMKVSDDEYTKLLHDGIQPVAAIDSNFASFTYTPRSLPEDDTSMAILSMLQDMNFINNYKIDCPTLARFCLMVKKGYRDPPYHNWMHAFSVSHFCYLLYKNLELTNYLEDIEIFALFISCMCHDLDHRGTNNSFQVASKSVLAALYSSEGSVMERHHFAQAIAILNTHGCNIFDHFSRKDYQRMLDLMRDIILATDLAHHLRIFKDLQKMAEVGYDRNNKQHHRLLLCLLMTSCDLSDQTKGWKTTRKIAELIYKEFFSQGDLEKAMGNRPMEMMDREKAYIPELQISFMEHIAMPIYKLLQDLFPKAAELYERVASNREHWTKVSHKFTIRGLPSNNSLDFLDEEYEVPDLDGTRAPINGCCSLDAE

Cc1nc2c(c(C(=O)N3CCOCC3)nn2C(C)c2ccc(C(F)(F)F)cc2)c(=O)[nH]1 (single isomer, unassigned) [Example 271, (S)- or (R)-6-Methyl-3-(morpholine-4-carbonyl)-1-(1-(4-(trifluoromethyl)phenyl)ethyl)-1H-pyrazolo[3,4-d]pyrimidin-4(5H)-one]
Ki: > 2960 nM

Cc1nc2c(c(-c3ccn[nH]3)nn2C(C)c2ccc(C(F)(F)F)cc2)c(=O)[nH]1 (single isomer, unassigned) [Example 235]
Ki: 25 nM

Cc1nc2c(c(CO)nn2C(C)c2ccc(C(C)(F)F)cc2)c(=O)[nH]1 (single isomer, unassigned) [Example 116, (R)- or (S)-1-(1-(4-(1,1-Difluoroethyl)phenyl)ethyl)-3-(hydroxymethyl)-6-methyl-1H-pyrazolo[3,4-d]pyrimidin-4(5H)-one]
Ki: 392 nM

Cc1nc2c(c(CC(O)C(F)(F)F)nn2C(C)c2ccc(C(F)(F)F)cc2)c(=O)[nH]1 (single isomer, unassigned) [Example 239]
Ki: ~2820 nM

Cc1nc2c(c(CO)nn2C(C)c2ncn(CC(F)(F)F)n2)c(=O)[nH]1 (single isomer, unassigned) [Example 148]
Ki: 671 nM

Cc1nc2c(c(-c3cn[nH]c3)nn2C(C)c2ccc(C(F)(F)F)cc2)c(=O)[nH]1 (single isomer, unassigned) [Example 238]
Ki: 48 nM

Cc1nc2c(c(-c3nnco3)nn2C(C)c2ccc(C(F)(F)F)cc2)c(=O)[nH]1 (single isomer, unassigned) [Example 263]
Ki: 0.88 nM

Cc1nc2c(c(CC(F)(F)F)nn2C(c2ccc(C(F)(F)F)c(F)c2)C(C)(C)C)c(=O)[nH]1 (single isomer, unassigned) [Example 60, (R)- or (S)-1-(1-(3-Fluoro-4-(trifluoromethyl)phenyl)-2,2-dimethylpropyl)-6-methyl-3-(2,2,2-trifluoroethyl)-1H-pyrazolo[3,4-d]pyrimidin-4(5H)-one]
Ki: > 2960 nM

Cc1nc2c(c(C(F)F)nn2C(C)c2ccc(C(F)(F)F)cc2F)c(=O)[nH]1 (single isomer, unassigned) [Example 186, (S)- or (R)-3-(Difluoro-methyl)-1-(1-(2-fluoro-4-(trifluoromethyl)phenyl)ethyl)-6-methyl-1H-pyrazolo[3,4-d]pyrimidin-4(5H)-one]
Ki: 0.63 nM

Cc1nc2c(c(CC(F)(F)F)nn2C(C)c2ccc(C(F)(F)F)cc2)c(=O)[nH]1 (single isomer, unassigned) [Example 65, (S)- or (R)-6-Methyl-3-(2,2,2-trifluoroethyl)-1-(1-(4-(trifluoromethyl)phenyl)ethyl)-1H-pyrazolo[3,4-d]pyrimidin-4(5H)-one]
Ki: 5 nM

Cc1nc2c(c(C(F)F)nn2C2(c3ccc(C(F)(F)F)cc3)COC2)c(=O)[nH]1 [Example 163, 3-(Difluoromethyl)-6-methyl-1-(3-(4-(trifluoromethyl)phenyl)oxetan-3-yl)-1H-pyrazolo[3,4-d]pyrimidin-4(5H)-one]
Ki: 9.5 nM

Cc1nc2c(c(C(F)F)nn2C(C)c2ccc(SC(F)(F)F)cc2)c(=O)[nH]1 (single isomer, unassigned) [Example 179, (R)- or (S)-3-(Difluoromethyl)-6-methyl-1-(1-(4-(trifluoromethylthio)phenyl)ethyl)-1H-pyrazolo[3,4-d] pyrimidin-4(5H)-one]
Ki: 28 nM

Cc1nc2c(c(Br)nn2C(C)c2ccc(C(F)(F)F)cc2)c(=O)[nH]1 (single isomer, unassigned) [Example 324]
Ki: 465 nM

Cc1nc2c(c(CF)nn2C(c2ccc(OC(F)(F)F)cc2)C2CC2)c(=O)[nH]1 (single isomer, unassigned) [Example 225, (S)- or (R)-1-(Cyclopropyl(4-(trifluoromethoxy)phenyl)methyl)-3-(fluoromethyl)-6-methyl-1,5-dihydro-4H-pyrazolo[3,4-d]pyrimidin-4-one]
Ki: 4.6 nM

CC(c1ccc(C(F)(F)F)cc1)n1nc(-c2nnco2)c2c(=O)[nH]c(CC3CCCC3)nc21 (single isomer, unassigned) [Example 342, (R) or (S)-6-(Cyclopentylmethyl)-3-(1,3,4-oxadiazol-2-yl)-1-(1-(4-(trifluoromethyl)phenyl)ethyl)-1,5-dihydro-4H-pyrazolo[3,4-d] pyrimidin-4-one]
Ki: 2.5 nM

CC(c1ccc(C(F)(F)F)cc1)n1nc(CO)c2c(=O)[nH]c(CC3CCCC3)nc21 (single isomer, unassigned) [Example 308, (S)- or (R)-6-(Cyclopentyl-methyl)-3-(hydroxymethyl)-1-(1-(4-(trifluoromethyl)phenyl)ethyl)-1,5-dihydro-4H-pyrazolo[3,4-d]pyrimidin-4-one]
Ki: 329 nM

CC(c1ccc(C(F)(F)F)cc1)n1nc(-c2nnco2)c2c(=O)[nH]c(CC3CC3)nc21 (single isomer, unassigned) [Example 341, (S)- or (R)-6-(Cyclopropylmethyl)-3-(1,3,4-oxadiazol-2-yl)-1-(1-(4-(trifluoromethyl)phenyl)ethyl)-1,5-dihydro-4H-pyrazolo[3,4-d] pyrimidin-4-one]
Ki: 191 nM

Cc1nc2c(c(CO)nn2C(C)c2ccc3c(c2)OC(F)(F)O3)c(=O)[nH]1 (single isomer, unassigned) [Example 115, (S)- or (R)-1-(1-(2,2-Difluorobenzo[d][1,3]dioxol-5-yl)ethyl)-3-(hydroxymethyl)-6-methyl-1H-pyrazolo[3,4-d]pyrimidin-4(5H)-one]
Ki: 7.2 nM

CC(=O)Nc1nn(C(C)c2ccc(C(F)(F)F)cc2)c2nc(C)[nH]c(=O)c12 (single isomer, unassigned) [Example 259]
Ki: ~2120 nM

Cc1nc2c(c(C(=O)N(C)C)nn2C(C)c2ccc(C(F)(F)F)cc2)c(=O)[nH]1 (single isomer, unassigned) [Example 267, (S)- or (R)-N,N,6-Trimethyl-4-oxo-1-(1-(4-(trifluoromethyl)phenyl)ethyl)-4,5-dihydro-1H-pyrazolo[3,4-d]pyrimidine-3-carboxamide]
Ki: > 2960 nM

CC(c1ccc(C(F)(F)F)cc1)n1nc(CO)c2c(=O)[nH]c(C3CCCO3)nc21 (single isomer, unassigned) [Example 312, (S,S)- or (R,S)- or (S,R)- or (R,R)-3-(Hydroxymethyl)-6-(tetrahydrofuran-2-yl)-1-(1-(4-(trifluoromethyl-)phenyl)ethyl)-1,5-dihydro-4H-pyrazolo[3,4-d]pyrimidin-4-one]
Ki: ~1860 nM

Cc1nc2c(c(CO)nn2C(C)c2ccc(C(F)(F)F)cc2I)c(=O)[nH]1 (single isomer, unassigned) [Example 140, (R)- or (S)-3-(Hydroxymethyl)-1-(1-(2-iodo-4-(trifluoromethyl-)phenyl)ethyl)-6-methyl-1,5-dihydro-4H-pyrazolo[3,4-d]pyrimidin-4-one]
Ki: 939 nM

Cc1nc2c(c(C(F)(F)F)nn2C(C)c2ccc(C(F)(F)F)cc2)c(=O)[nH]1 (single isomer, unassigned) [Example 69, (S)- or-(R)-6-Methyl-3-(trifluoromethyl)-1-(1-(4-(trifluoromethyl)phenyl)ethyl)-1H-pyrazolo[3,4-d]pyrimidin-4(5H)-one]
Ki: 713 nM

CC(c1ccc(C(F)(F)F)cc1)n1nc(C#N)c2c(=O)[nH]c(CC3CC3)nc21 (single isomer, unassigned) [Example 347]
Ki: 1030 nM

Cc1nc2c(c(CC(C)O)nn2C(C)c2ccc(C(F)(F)F)cc2)c(=O)[nH]1 (single isomer, unassigned) [Example 246]
Ki: 72 nM

Cc1nc2c(c(CC(F)(F)F)nn2C(C)c2ccc(C(F)(F)F)cc2)c(=O)[nH]1 (single isomer, unassigned) [Example 64, (R)- or (S)-6-Methyl-3-(2,2,2-trifluoroethyl)-1-(1-(4-(trifluoromethyl)phenyl)ethyl)-1H-pyrazolo[3,4-d]pyrimidin-4(5H)-one]
Ki: 274 nM

CC(C)Cc1nc2c(c(CO)nn2C(C)c2ccc(C(F)(F)F)cc2)c(=O)[nH]1 (single isomer, unassigned) [Example 305, (R)- or (S)-3-(Hydroxy-methyl)-6-isobutyl-1-(1-(4-(trifluoromethyl)phenyl)ethyl)-1,5-dihydro-4H-pyrazolo-[3,4-d]pyrimidin-4-one]
Ki: 17 nM

Cc1nc2c(c(C(F)F)nn2C(C)c2ccc(C(F)(F)F)c(F)c2)c(=O)[nH]1 (single isomer, unassigned) [Example 167, (R)- or (S)-3-(Difluoromethyl)-1-(1-(3-fluoro-4-(trifluoromethyl)phenyl)ethyl)-6-methyl-1H-pyrazolo[3,4-d]pyrimidin-4(5H)-one]
Ki: 256 nM

Cc1nc2c(c(CF)nn2C(c2ccc(OC(F)(F)F)c(F)c2)C2CC2)c(=O)[nH]1 (single isomer, unassigned) [Example 229, (S)- or (R)-1-(Cyclopropyl(3-fluoro-4-(trifluoromethoxy)phenyl)methyl)-3-(fluoromethyl)-6-methyl-1,5-dihydro-4H-pyrazolo[3,4-d]pyrimidin-4-one]
Ki: 2 nM

CC(c1ccc(S(F)(F)(F)(F)F)cc1)n1nc(CO)c2c(=O)[nH]c(C3CC3)nc21 (single isomer, unassigned) [Example 315, (R)- or (S)-6-Cyclopropyl-3-(hydroxymethyl)-1-{1-[4-(pentafluoro-sulfanyl)-phenyl]-ethyl}-1,5-dihydro-4H-pyrazolo[3,4-d]pyrimidin-4-one]
Ki: 3.3 nM

CC(c1ccc(C(F)(F)F)cc1)n1nc(C(F)F)c2c(=O)[nH]c(C3CC3)nc21 (single isomer, unassigned) [Example 192, (S)- or (R)-6-Cyclopropyl-3-(difluoromethyl)-1-(1-(4-(trifluoromethyl)phenyl)ethyl)-1,5-dihydro-4H-pyrazolo[3,4-d]pyrimidin-4-one]
Ki: 3.4 nM
